From US7384733B1, “Interface patch clamping” (Xention Discovery Limited, priority 1998, dated 2008) come the findings set out here.

Structures are written as SMILES.

The assay has as its target potassium currents (Kv1.1) in MK1 cell (Mus musculus, UniProt P16388). The settings on record: TEA 5 mM in extracellular solution in the dish, then washing; FIG. 21.

Sequence of potassium currents (Kv1.1) in MK1 cell (P16388 whole entry): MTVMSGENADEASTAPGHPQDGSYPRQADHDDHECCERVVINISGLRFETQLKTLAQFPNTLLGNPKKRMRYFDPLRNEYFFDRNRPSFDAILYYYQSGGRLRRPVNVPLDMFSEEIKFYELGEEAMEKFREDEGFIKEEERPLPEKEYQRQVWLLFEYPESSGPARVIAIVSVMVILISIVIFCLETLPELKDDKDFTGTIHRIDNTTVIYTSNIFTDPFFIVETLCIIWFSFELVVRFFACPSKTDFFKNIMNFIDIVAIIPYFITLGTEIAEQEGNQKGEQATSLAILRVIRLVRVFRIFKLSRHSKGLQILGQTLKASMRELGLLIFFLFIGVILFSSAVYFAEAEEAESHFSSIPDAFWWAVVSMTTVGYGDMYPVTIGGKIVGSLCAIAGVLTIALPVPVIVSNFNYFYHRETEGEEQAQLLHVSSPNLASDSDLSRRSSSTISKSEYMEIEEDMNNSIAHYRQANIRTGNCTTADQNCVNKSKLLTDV
From the text: The solution may be exchanged readily by perfusion of the dish and this allows multiple drug additions and dose response curves to be obtained while recording from the one cell.
The holding potential was −60 mV and (a) and (b) show outward potassium currents (Kv1.1) in response to a voltage step to +30 mV.

With `CC[N+](CC)(CC)CC` [TEA, tetraethylammonium], the “effect on the potassium current recorded from MK1 cell in whole cell recording mode” value was “blocking effect of TEA was reversed by washing”.
